Measurements from US20260078119A1, “DEGRADER COMPOUNDS AND USES THEREOF” (Bristol-Myers Squibb Company, priority 2024, published 2026).

Legend:
FAK = target: T1, FAK (Homo sapiens, UniProt Q05397); assay: FAK-HiBiT Degradation Assay; format: cell-based; details: for DC50: JHH-4-FAK-HiBiT clone d01 cells, two hours incubation, 10-point dose response, 3-fold dilution starting at 1 μM, Nano-Glo HiBiT luminescence, read-out: FAK HiBiT EC50; for FAK HiBiT Ymin: lower limit of the four parameter fit (value A), Ymax derived using DMSO control, JHH-4-FAK-HiBiT cells, two hours
T1 construct: homozygous knock-in of a HiBiT tag (Promega Corporation, Madison, WI) to the C-terminus of the FAK gene in its natural genomic locus; endogenous in cells; host or cells: JHH-4-FAK-HiBiT clone d01 (CRISPR-Cas9 knock-in at the endogenous locus)
Outline: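 Degradation read out by HiBiT lytic luminescence after 2 h compound exposure (top concentration 1 μM, 3-fold, 10 points) in JHH-4 clone d01 bearing endogenous FAK-HiBiT knock-in. Four-parameter logistic fit gave EC50 and Ymin; DMSO wells defined Ymax.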

CAL-51 cells = assay: CAL-51 Cell Proliferation Assay; format: cell-based; details: for EC50: Homo sapiens, 120 hours incubation, 10-point dose response, 4-fold dilutions starting at 10 μM, Cell-Titer-Glo, read-out: CAL-51 Prolif EC50; for CAL-51 Prolif Ymin: minimal percent of DMSO control observed in the concentrations tested (Ymin-obs), 120 hours
Description: CAL-51 cells were obtained from Bristol Myers Squibb internal cell banks (originally sourced from DSMZ-German Collection of Microorganisms and Cell Cultures GmbH, Germany) and cultured in RPMI complete media (RPMI-1640, 10% Fetal Bovine serum, 1× Antibiotic-Antimycotic, and 1× Non-Essential Amino Acids). Compounds were dispensed into 384-well plates using an acoustic dispenser (Beckman Coulter Life Sciences, Carlsbad, CA) in duplicate with 14 compounds on each plate. For each compound, a 10-point dose response was printed at 4-fold dilutions starting at 10 μM. The DMSO concentration was kept constant for a final assay concentration of 0.1% per well assuming 50 uL final media volume. Compound plates were sealed and frozen at −20° C. until use.
For each assay batch, compound plates were thawed and allowed to reach room temperature, and cells were seeded at 350 cells per well in 50 μl complete RPMI media. After 120 hours of incubation at 37° C. and 5% CO2, cells were lysed by addition of 25 μL of Cell-Titer-Glo Reagent (Promega Corporation, Madison, WI), as per manufacturer's instructions, protected from light, shaken for 20 minutes, and total luminescence read by a CLARIOstar Plus plate reader (BMG LabTech, Cary, NC). Total luminescence signal is linearly correlated with cell number remaining in the well.
Luminescence data was processed per plate by subtracting reagent-only “blank” well luminescence from all measured values and calculating a percent of DMSO control value for each treatment well. Then, to determine the half-maximal effective concentration (EC50) values for cell growth inhibition, a four parameter logistic model was fit to the data for each DMSO-normalized compound: Sigmoidal Dose-Response Model: (FIT=(A+((B−A)/1+((C/x)^D)))) where C is the inflection point (EC50), D is the Hill slope, and A and B are the low and high limits of the fit respectively. The lower limit of the fit (value A) is referred to as Ymin-calculated. The minimal percent of DMSO control that is observed in the concentrations tested for each compound is labeled as “Ymin-obs”, and was recorded and reported in the tables. Sigmoidal fit curves were processed and evaluated using Dotmatics Atlas (Insightful Science, LLC, Boston, MA).

T1 sequence (Q05397 whole entry): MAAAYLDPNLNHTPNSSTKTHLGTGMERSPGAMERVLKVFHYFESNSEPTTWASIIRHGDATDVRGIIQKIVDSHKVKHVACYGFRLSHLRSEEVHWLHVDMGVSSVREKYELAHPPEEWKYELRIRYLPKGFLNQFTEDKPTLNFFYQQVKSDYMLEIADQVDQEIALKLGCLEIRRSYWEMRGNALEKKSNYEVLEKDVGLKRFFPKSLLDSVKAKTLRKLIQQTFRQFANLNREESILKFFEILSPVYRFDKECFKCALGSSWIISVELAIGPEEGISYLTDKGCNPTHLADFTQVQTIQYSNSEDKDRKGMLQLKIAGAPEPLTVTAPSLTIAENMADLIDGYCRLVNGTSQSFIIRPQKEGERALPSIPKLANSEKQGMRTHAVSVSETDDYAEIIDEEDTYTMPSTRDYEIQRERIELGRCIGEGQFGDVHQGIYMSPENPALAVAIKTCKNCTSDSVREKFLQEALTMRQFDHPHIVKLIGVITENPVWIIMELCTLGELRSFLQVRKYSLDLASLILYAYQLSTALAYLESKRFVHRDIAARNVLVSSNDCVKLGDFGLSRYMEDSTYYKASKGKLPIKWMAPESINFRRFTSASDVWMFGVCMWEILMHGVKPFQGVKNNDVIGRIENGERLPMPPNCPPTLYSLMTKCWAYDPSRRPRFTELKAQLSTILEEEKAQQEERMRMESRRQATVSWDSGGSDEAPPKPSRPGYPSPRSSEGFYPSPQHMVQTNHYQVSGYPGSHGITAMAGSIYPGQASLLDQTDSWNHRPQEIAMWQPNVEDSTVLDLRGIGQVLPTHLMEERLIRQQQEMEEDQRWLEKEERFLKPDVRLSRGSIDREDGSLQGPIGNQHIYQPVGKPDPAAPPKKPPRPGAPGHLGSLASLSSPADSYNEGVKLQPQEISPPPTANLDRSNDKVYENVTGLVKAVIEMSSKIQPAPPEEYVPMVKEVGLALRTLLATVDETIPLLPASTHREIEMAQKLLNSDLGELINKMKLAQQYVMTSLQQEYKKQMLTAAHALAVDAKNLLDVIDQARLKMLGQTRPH

Row | DC50 (FAK) [nM] | FAK HiBiT Ymin (FAK) | SMILES | EC50 (CAL-51 cells) [nM] | CAL-51 Prolif Ymin (CAL-51 cells)
1 | 0.64 | 6.28 | O=C1CCC(N2Cc3cc(Cn4ncc5c(-c6ncc(C(F)(F)F)cc6Cl)cc(N6CCCC6)nc54)ccc3C2=O)C(=O)N1 (stereo not drawn) [Example 11, 3-[5-({4-[3-chloro-5-(trifluoromethyl)pyridin-2-yl]-6-(pyrrolidin-1-yl)-1H-pyrazolo[3,4-b]pyridin-1-yl}methyl)-1-oxo-2,3-dihydro-1H-isoindol-2-yl]piperidine-2,6-dione] | 0.34 | 22.89
2 | ≥ 1000 | 87.20 | Cc1cnc(-c2cc(N3CC(F)C3)nc3c2cnn3Cc2ccc3c(c2)CN(C2CCC(=O)NC2=O)C3=O)nc1 (stereo not drawn) [Example 138, 3-(5-{[6-(3-fluoroazetidin-1-yl)-4-(5-methylpyrimidin-2-yl)-1H-pyrazolo[3,4-b]pyridin-1-yl]methyl}-1-oxo-2,3-dihydro-1H-isoindol-2-yl)piperidine-2,6-dione] | 160 | 89.63
3 | 5.55 | 9.26 | COc1cnc(-c2cc(N3CC(F)C3)nc3c2cnn3Cc2ccc3c(c2)CN(C2CCC(=O)NC2=O)C3=O)c(Cl)c1 (stereo not drawn) [Example 69, 3-(5-{[4-(3-chloro-5-methoxypyridin-2-yl)-6-(3-fluoroazetidin-1-yl)-1H-pyrazolo[3,4-b]pyridin-1-yl]methyl}-1-oxo-2,3-dihydro-1H-isoindol-2-yl)piperidine-2,6-dione] | 1.84 | 23.38
4 | 11.1 | 11.71 | Cc1cnc(-c2cc(N3CC(F)C3)nc3c2cnn3Cc2ccc3c(c2)CN(C2CCC(=O)NC2=O)C3=O)c(C)c1 (stereo not drawn) [Example 85, 3-(5-{[4-(3,5-dimethylpyridin-2-yl)-6-(3-fluoroazetidin-1-yl)-1H-pyrazolo[3,4-b]pyridin-1-yl]methyl}-1-oxo-2,3-dihydro-1H-isoindol-2-yl)piperidine-2,6-dione] | 6.82 | 35.10
5 | 1.79 | 8.57 | CCOc1cnc(-c2cc(N3CC(F)C3)nc3c2cnn3Cc2ccc3c(c2)CN(C2CCC(=O)NC2=O)C3=O)c(C#N)c1 (stereo not drawn) [Example 46, 2-(1-{[2-(2,6-dioxopiperidin-3-yl)-1-oxo-2,3-dihydro-1H-isoindol-5-yl]methyl}-6-(3-fluoroazetidin-1-yl)-1H-pyrazolo[3,4-b]pyridin-4-yl)-5-ethoxypyridine-3-carbonitrile] | 0.91 | 30.10
6 | 21.1 | 5.97 | O=C1CCC(N2Cc3cc(Cn4cnc5c(-c6ncc(F)cc6Cl)cc(N6CC(F)C6)nc54)ccc3C2=O)C(=O)N1 (stereo not drawn) [Example 25, 3-(5-((7-(3-chloro-5-fluoropyridin-2-yl)-5-(3-fluoroazetidin-1-yl)-3H-imidazo[4,5-b]pyridin-3-yl)methyl)-1-oxoisoindolin-2-yl)piperidine-2,6-dione] | 146 | 46.08
7 | 2.4 | 8.38 | O=C1CC[C@H](N2Cc3cc(Cn4ncc5c(-c6ccc(OCC(F)(F)F)cc6Cl)cc(N6CC(F)C6)nc54)ccc3C2=O)C(=O)N1 [Example 52, (3S)-3-[5-({4-[2-chloro-4-(2,2,2-trifluoroethoxy)phenyl]-6-(3-fluoroazetidin-1-yl)-1H-pyrazolo[3,4-b]pyridin-1-yl}methyl)-1-oxo-2,3-dihydro-1H-isoindol-2-yl]piperidine-2,6-dione] | 1.13 | 22.49
8 | 0.42 | 7.37 | CCOc1cnc(-c2c(Cl)c(N3CC(F)C3)nc3c2cnn3Cc2ccc3c(c2)CN([C@H]2CCC(=O)NC2=O)C3=O)c(C(F)(F)F)c1 [Example 4, (3S)-3-[5-({5-chloro-4-[5-ethoxy-3-(trifluoromethyl)pyridin-2-yl]-6-(3-fluoroazetidin-1-yl)-1H-pyrazolo[3,4-b]pyridin-1-yl}methyl)-1-oxo-2,3-dihydro-1H-isoindol-2-yl]piperidine-2,6-dione] | 0.52 | 1.90
9 | 5.06 | 9.35 | CCOc1ccc(-c2c(F)c(N3CC[C@](C)(O)C3)nc3c2cnn3Cc2ccc3c(c2)CN([C@H]2CCC(=O)NC2=O)C3=O)c(Cl)c1 [Example 67, (3S)-3-(5-{[4-(2-chloro-4-ethoxyphenyl)-5-fluoro-6-[(3S)-3-hydroxy-3-methylpyrrolidin-1-yl]-1H-pyrazolo[3,4-b]pyridin-1-yl]methyl}-1-oxo-2,3-dihydro-1H-isoindol-2-yl)piperidine-2,6-dione] | 1.6 | 28.60
10 | 3.72 | 10.37 | O=C1CCC(N2Cc3cc(Cn4ncc5c(-c6ncc(F)cc6Cl)cc(N6CC(F)C6)nc54)ccc3C2=O)C(=O)N1 (stereo not drawn) [Example 56, 3-(5-{[4-(3-chloro-5-fluoropyridin-2-yl)-6-(3-fluoroazetidin-1-yl)-1H-pyrazolo[3,4-b]pyridin-1-yl]methyl}-1-oxo-2,3-dihydro-1H-isoindol-2-yl)piperidine-2,6-dione] | 1.67 | 26.66
11 | 51.8 | 21.00 | O=C1CC[C@H](N2Cc3cc(Cn4ncc5c(-c6ncc(C(F)(F)F)cc6Cl)cc(N6CC(O)C6)nc54)ccc3C2=O)C(=O)N1 [Example 113, (3S)-3-[5-({4-[3-chloro-5-(trifluoromethyl)pyridin-2-yl]-6-(3-hydroxyazetidin-1-yl)-1H-pyrazolo[3,4-b]pyridin-1-yl}methyl)-1-oxo-2,3-dihydro-1H-isoindol-2-yl]piperidine-2,6-dione] | 9.28 | 38.05
12 | 109 | 45.54 | O=C1CC[C@H](N2Cc3cc(Cn4ncc5c(-c6ncc(F)cc6F)cc(N6CC[C@H](O)C6)nc54)ccc3C2=O)C(=O)N1 [Example 123, (3S)-3-(5-{[4-(3,5-difluoropyridin-2-yl)-6-[(3S)-3-hydroxypyrrolidin-1-yl]-1H-pyrazolo[3,4-b]pyridin-1-yl]methyl}-1-oxo-2,3-dihydro-1H-isoindol-2-yl)piperidine-2,6-dione] | 28.3 | 78.23
13 | 0.14 | 7.57 | O=C1CC[C@H](N2Cc3cc(Cn4ncc5c(-c6ncc(C(F)(F)F)cc6Cl)c(F)c(N6CC(F)C6)nc54)ccc3C2=O)C(=O)N1 [Example 1, (3S)-3-[5-({4-[3-chloro-5-(trifluoromethyl)pyridin-2-yl]-5-fluoro-6-(3-fluoroazetidin-1-yl)-1H-pyrazolo[3,4-b]pyridin-1-yl}methyl)-1-oxo-2,3-dihydro-1H-isoindol-2-yl]piperidine-2,6-dione] | 0.17 | 27.59
14 | 0.24 | 7.25 | O=C1CC[C@H](N2Cc3cc(Cn4ncc5c(-c6ncc(C(F)(F)F)cc6Cl)c(Cl)c(N6CC(F)C6)nc54)ccc3C2=O)C(=O)N1 [Example 2, (3S)-3-[5-({5-chloro-4-[3-chloro-5-(trifluoromethyl)pyridin-2-yl]-6-(3-fluoroazetidin-1-yl)-1H-pyrazolo[3,4-b]pyridin-1-yl}methyl)-1-oxo-2,3-dihydro-1H-isoindol-2-yl]piperidine-2,6-dione] | 0.43 | 14.10
15 | 20 | 17.46 | CCOc1ccc(-c2cc(N3CC[C@](C)(O)C3)nc3c2cnn3Cc2ccc3c(c2)CN(C2CCC(=O)NC2=O)C3=O)c(Cl)c1 (stereo partly drawn) [Example 96, 3-(5-{[4-(2-chloro-4-ethoxyphenyl)-6-[(3S)-3-hydroxy-3-methylpyrrolidin-1-yl]-1H-pyrazolo[3,4-b]pyridin-1-yl]methyl}-1-oxo-2,3-dihydro-1H-isoindol-2-yl)piperidine-2,6-dione] | 1.88 | 45.73
